Data reported in US12233060B2, “Inhibitors of Ataxia-Telangiectasia Mutated and Rad3-related protein kinase (ATR) for use in methods of treating cancer” (THE INSTITUTE OF CANCER RESEARCH: ROYAL CANCER HOSPITAL, priority 2016, dated 2025).

Key:
[1] = tested on: TOV21G (ARID1A mutant) and RMG1 (ARID1A wildtype) cells; experiment: Five-day dose response in OCCC cell lines TOV21G and RMG1; type: cell-based, human; conditions: 5 days exposure
Experimental: (§1) FIG. 3. In vivo ARID1A/ATR synthetic lethality. A. Schematic of VX-970 therapy experiment in mice bearing established HCT116 ARID1A^+/+ and ARID1A^−/− xenografts. Cells were inoculated subcutaneously into nude mice and tumors allowed to establish for 10 days. Mice were then randomized to treatment regimens of either VX-970 (60 mg/kg, 4× weekly by oral gavage) or vehicle. Mice were then treated for a subsequent 40 days. Tumor volume was monitored twice weekly. B. Relative tumor volume plot from (A) showing efficacy of VX-970 and selectivity for ARID1A^−/− xenografts* p=0.024, ANOVA. C. Schematic of tumor incidence experiment in mice with non-established HCT116 ARID1A^+/+ and ARID1A^−/− xenografts. Mice were inoculated with cells as before, randomized and then treated with VX-970. […] Tumor volume was monitored twice weekly and overall tumour incidence was assessed 40 days later. […] PARP-1, cleaved PARP-1 (85 kDa fragment) and tubulin were detected by western blot. […] Caspase3/7 activity was assessed using Caspase-Glo and total cellular viability was estimated using CellTitre-Glo. Luminescence ratios for Caspase-Glo (i.e. apoptotic cells) and CellTitre-Glo (ie viable cells) was determined for each dose and normalized to DMSO treated samples. *Student's t-test, p<0.05. […]
Short-term survival assays were performed in 384-well plates. […] Colonies were counted manually. […]

[2] = tested on: HCT116 ARID1A+/+ and ARID1A−/− cells; experiment: Apoptosis assay (caspase-3/7 activity); type: cell-based, human; conditions: 24 hours exposure; p<0.05 Student's t-test
Experimental: as §1, with “xenografts.” for “xenografts. Mice were inoculated with cells as before, randomized and then treated with VX-970.”
FIG. 5. […] The percentage of cells in G2/M was measured by FACS following PI staining. […] A minimum of 50 anaphases were scored in 3 biological replicate experiments. *p=0.023, Student's t-test. […]

CNCc1ccc(-c2cc(-c3nc(-c4ccc(S(=O)(=O)C(C)C)cc4)cnc3N)on2)cc1 [VX-970, 5-[4-(Isopropylsulfonyl)phenyl]-3-(3-{4-[(methylamino)methyl]phenyl}-1,2-oxazol-5-yl)-2-pyrazinamine] was tested, and the “sensitivity of TOV21G vs RMG1” value [1] was “more sensitive to both VE-821 and VX-970” and the “caspase-3/7 activation, ARID1A−/− vs ARID1A+/+” value [2] was “higher caspase-3/7 activation”.
